In assay [1] the target is T1, TSPO (Homo sapiens, UniProt P30536). The assay can be described thus: Frontal affinity chromatography on MMAC-OT. In kind it is binding.
Assay [2] deals with Translocator protein (TSPO) (Homo sapiens, UniProt P30536). The experiment in a line: Frontal affinity chromatography. It is filed as binding. The settings on record: for Breakthrough time: MMAC (U87MG), ammonium acetate [10 mM.
In assay [3] the target is TSPO. The settings on record: read-out: Reported Ki using marker ligand PK; cited from earlier work.
Assay [4] addresses mPTP. The settings on record: cited from earlier work.
The target of assay [5] is mitochondrial permeability transition pore (mPTP). The assay can be described thus: Frontal affinity chromatography on MMAC-. In kind it is binding, human. The settings on record: read-out: Kd on MMAC-(U87MG); mPTP ligand; ammonium acetate [10 mM, pH 7.4].
The target of assay [6] is DIPY binding site of TSPO (Homo sapiens, UniProt P30536). The experiment in a line: Frontal displacement on MMAC-.
Chain of DIPY binding site of TSPO (P30536 whole entry): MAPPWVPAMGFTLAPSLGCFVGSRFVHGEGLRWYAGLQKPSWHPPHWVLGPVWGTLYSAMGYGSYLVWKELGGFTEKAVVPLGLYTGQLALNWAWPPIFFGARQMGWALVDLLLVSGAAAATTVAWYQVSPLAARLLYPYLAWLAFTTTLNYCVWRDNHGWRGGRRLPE
Assay [7] addresses T1, TSPO. The experiment in a line: Single displacement study for ranking TSPO ligands on MMAC-. In kind it is binding. The settings on record: MMAC-(U87MG).
The target of assay [8] is SUR. Conditions: read-out: Reported Kd; SUR ligand; cited from earlier work.
The target of assay [9] is sulfonylurea receptor (SUR). The assay can be described thus: Frontal affinity chromatography on MMAC-. It is filed as binding, human. Conditions: read-out: Kd on MMAC-(U87MG); SUR ligand; ammonium acetate [10 mM, pH 7.4].
Assay [10] concerns the target SUR. The assay can be described thus: Frontal affinity chromatography on MMAC-OT. It is filed as binding, human. Conditions: read-out: Kd on MMAC-OT (HEK-293); SUR ligand; open tubular column.

Each structure is given as a SMILES string. “And” between values parts separate entries of the source, which are not always exact repeats. Identical values can stand only once. Like-named read-outs stand apart in the source and are kept apart here.

Chain of Translocator protein (TSPO) (P30536 whole entry): as above
T1 sequence (P30536 whole entry): as above

With `OCCN(CCO)c1nc(N2CCCCC2)c2nc(N(CCO)CCO)nc(N3CCCCC3)c2n1` [DIPY, dipyridamole], the affinity in [1], expressed as Kd, was 760 ± 250 nM. The Breakthrough time came out at 100 min in assay [2] (pH 5.9]), 50 min in assay [2] (pH 5.9] with 10% methanol) and 200 min in [2] (pH 7.4]). The inhibition constant (Ki) in assay [3] was 680 nM and 679 nM.

Turning to `O=C(O)Cc1ccccc1Nc1c(Cl)cccc1Cl` [Diclofenac, diclofenac], the “Reported Kd (mPTP induction)” value in [4] was “induces mPTP at low micromolar range [1, 37]”. In addition, in [5], the Kd came out at 1200 ± 190 nM.

In turn, `CN1C(=O)CN=C(c2ccccc2F)c2cc([N+](=O)[O-])ccc21` [Flu, flunitrazepam] had a Kd in assay [2] of 290 ± 60 nM. In [6] (MMAC-(U87MG), concentrations greater than 0.5 μM), the “Increase of breakthrough time of DIPY” value is 10-15%. The “Displacement of DIPY” value in [6] (MMAC-(U87MG), concentrations lower than 0.5 μM) is “did not significantly displace DIPY”. In addition, the Ki in assay [3] was 211 nM. Besides, the “Effect on retention of DIPY in single displacement study” value in assay [7] (2.875 μM compound with 0.125 μM DIPY) is recorded as “increased the retention of DIPY”. Moreover, the “Increase of retention of 0.125 μM DIPY” value in assay [7] (2.875 μM compound, pH 5.9) is recorded as ~ 15%.

Take `COc1ccc(Cl)cc1C(=O)NCCc1ccc(S(=O)(=O)NC(=O)NC2CCCCC2)cc1` [Glibenclamide, glibenclamide]: the figures for the Kd in [8], in [9] and in assay [10] were 360 ± 50 nM, 790 ± 390 nM and 990 ± 520 nM, respectively.

As to `CCC1=C(C)c2cc3[nH]c(cc4[nH]c(cc5nc(cc1n2)C(C)=C5CC)c(C)c4CCC(=O)O)c(CCC(=O)O)c3C` [MIX, mesoporphyrin IX], the Ki was 1470 ± 120 nM in assay [6] (read-out: Ki for DIPY binding site on MMAC(U87MG), 0.5 μM DIPY as marker, ammonium acetate [10 mM, pH 5.9]) and 650 nM in assay [3].

Take `C=CC1=C(C)c2cc3[nH]c(cc4nc(cc5[nH]c(cc1n2)c(C)c5CCC(=O)O)C(CCC(=O)O)=C4C)c(C)c3C=C` [PIX, protoporphyrin IX]: the inhibition constant Ki in [6] is 3330 ± 1350 nM; in assay [3], 2920 nM.

For `C=C(C)[C@H]1Cc2c(ccc3c2O[C@@H]2COc4cc(OC)c(OC)cc4[C@@H]2C3=O)O1` [Rot, rotenone], the inhibitory constant (Ki) in [6] was 3400 ± 1270 nM; in [3], 20900 nM.

The record behind these values is publication PMC4512758 (Analytical biochemistry, 2015).
